One data set has as its target Insulin receptor (Homo sapiens, UniProt P06213). Nature of the data set: Inhibition of IRK.
Data set [1] has as its target T1, Tyrosine-protein kinase ITK/TSK (Homo sapiens, UniProt Q08881).
T1 sequence (Q08881 whole entry): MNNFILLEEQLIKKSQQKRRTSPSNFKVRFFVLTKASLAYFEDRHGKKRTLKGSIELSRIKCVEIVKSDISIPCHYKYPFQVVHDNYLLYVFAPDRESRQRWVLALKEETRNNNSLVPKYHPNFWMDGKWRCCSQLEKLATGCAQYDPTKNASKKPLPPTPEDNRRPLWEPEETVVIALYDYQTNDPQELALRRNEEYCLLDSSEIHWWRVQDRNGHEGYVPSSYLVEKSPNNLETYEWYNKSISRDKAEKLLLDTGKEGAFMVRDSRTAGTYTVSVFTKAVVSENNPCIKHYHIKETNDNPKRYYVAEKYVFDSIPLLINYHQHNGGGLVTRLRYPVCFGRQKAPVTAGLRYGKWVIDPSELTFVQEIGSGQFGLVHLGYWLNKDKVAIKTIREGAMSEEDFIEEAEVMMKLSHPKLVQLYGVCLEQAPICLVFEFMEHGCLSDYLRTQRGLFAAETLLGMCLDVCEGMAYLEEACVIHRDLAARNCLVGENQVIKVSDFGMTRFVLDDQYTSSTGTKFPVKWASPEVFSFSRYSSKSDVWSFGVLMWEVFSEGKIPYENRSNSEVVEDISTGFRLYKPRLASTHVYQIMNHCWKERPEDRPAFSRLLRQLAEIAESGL
Nature of the data set: Inhibition of recombinant ITK by DELFIA assay.

Another data set concerns the target Cytochrome P450 3A4 (Homo sapiens, UniProt P08684). Nature of the data set: Inhibition of CYP3A4. The class given is ADME.
Data set [2] addresses Tyrosine-protein kinase Lyn (Homo sapiens, UniProt P07948). Nature of the data set: Inhibition of Lyn.
Data set [3] concerns the target T2, Tyrosine-protein kinase Tec (Homo sapiens, UniProt P42680).
T2 sequence (P42680 whole entry): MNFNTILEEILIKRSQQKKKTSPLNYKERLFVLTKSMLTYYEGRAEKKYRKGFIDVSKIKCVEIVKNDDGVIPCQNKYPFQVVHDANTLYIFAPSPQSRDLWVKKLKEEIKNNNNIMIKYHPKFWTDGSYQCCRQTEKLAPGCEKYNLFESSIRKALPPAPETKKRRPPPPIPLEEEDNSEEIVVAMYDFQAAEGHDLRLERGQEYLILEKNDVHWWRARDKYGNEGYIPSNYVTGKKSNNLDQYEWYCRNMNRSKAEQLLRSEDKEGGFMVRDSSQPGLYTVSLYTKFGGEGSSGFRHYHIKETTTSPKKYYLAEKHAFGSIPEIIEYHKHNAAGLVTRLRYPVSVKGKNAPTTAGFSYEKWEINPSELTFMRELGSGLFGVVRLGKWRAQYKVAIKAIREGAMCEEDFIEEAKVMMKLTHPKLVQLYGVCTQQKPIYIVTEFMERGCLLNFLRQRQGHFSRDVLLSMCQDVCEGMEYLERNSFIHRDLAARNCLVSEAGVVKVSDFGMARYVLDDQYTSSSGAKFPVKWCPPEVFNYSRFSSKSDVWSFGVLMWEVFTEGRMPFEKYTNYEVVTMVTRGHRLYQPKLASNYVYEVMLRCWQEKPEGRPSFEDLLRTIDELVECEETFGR
Nature of the data set: Inhibition of Tec kinase.

Another data set has as its system Jurkat. Nature of the data set: Cytotoxicity against human JURKAT cells. The class given is functional. As to conditions: read-out: TC50 (the source's name).
A further data set deals with Cytochrome P450 2C9 (Homo sapiens, UniProt P11712). Description: Inhibition of CYP2C9. It counts as ADME.
Chain of Cytochrome P450 2C9 (P11712 whole entry): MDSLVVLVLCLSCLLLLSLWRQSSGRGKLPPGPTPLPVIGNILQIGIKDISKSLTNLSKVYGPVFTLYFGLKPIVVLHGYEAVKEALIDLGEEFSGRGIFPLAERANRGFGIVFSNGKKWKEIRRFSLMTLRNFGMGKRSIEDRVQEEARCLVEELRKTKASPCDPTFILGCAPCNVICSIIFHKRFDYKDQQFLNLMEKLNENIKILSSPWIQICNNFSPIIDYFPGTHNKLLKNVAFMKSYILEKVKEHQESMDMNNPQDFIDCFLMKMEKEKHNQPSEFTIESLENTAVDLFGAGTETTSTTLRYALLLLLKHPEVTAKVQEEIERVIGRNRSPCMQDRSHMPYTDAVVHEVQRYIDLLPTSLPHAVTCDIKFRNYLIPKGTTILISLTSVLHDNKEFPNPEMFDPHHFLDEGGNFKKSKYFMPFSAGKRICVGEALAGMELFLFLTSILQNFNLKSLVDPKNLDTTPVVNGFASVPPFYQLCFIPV
Data set [4] addresses T3, Tyrosine-protein kinase TXK (Homo sapiens, UniProt P42681).
T3 sequence (P42681 whole entry): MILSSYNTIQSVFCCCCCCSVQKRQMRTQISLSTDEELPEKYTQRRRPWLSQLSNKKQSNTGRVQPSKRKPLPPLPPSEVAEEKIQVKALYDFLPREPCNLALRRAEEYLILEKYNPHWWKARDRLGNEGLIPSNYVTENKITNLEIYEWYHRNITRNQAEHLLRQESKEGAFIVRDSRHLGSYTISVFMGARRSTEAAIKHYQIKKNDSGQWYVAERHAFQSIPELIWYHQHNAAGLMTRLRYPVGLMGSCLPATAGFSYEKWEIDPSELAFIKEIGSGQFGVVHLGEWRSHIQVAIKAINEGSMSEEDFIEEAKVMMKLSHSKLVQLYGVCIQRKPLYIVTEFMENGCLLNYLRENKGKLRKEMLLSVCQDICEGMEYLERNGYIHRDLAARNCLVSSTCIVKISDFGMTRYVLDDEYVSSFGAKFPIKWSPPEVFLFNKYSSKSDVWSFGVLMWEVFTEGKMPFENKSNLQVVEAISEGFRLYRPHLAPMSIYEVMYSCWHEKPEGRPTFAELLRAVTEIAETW
Description: Inhibition of TXK.

A further data set relates to Mus musculus. Nature of the data set: Inhibition of anti-CD3-induced IL2 production in sc dosed mouse. The class given is functional, organism-based.

Chain of Cytochrome P450 3A4 (P08684 whole entry): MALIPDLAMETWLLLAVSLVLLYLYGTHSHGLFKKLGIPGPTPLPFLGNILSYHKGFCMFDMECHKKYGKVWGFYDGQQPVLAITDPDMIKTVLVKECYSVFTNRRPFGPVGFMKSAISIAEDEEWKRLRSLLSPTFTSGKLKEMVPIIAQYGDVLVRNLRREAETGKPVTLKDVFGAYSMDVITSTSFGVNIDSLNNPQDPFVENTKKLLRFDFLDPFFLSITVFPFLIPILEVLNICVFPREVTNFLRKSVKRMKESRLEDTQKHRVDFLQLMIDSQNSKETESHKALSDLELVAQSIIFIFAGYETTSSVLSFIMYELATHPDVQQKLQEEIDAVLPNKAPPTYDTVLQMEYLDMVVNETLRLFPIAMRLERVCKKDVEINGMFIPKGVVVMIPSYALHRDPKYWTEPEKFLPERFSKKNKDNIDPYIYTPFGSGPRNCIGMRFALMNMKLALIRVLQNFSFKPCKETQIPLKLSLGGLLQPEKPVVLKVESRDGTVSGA
Chain of Insulin receptor (P06213 28-758 limits assumed): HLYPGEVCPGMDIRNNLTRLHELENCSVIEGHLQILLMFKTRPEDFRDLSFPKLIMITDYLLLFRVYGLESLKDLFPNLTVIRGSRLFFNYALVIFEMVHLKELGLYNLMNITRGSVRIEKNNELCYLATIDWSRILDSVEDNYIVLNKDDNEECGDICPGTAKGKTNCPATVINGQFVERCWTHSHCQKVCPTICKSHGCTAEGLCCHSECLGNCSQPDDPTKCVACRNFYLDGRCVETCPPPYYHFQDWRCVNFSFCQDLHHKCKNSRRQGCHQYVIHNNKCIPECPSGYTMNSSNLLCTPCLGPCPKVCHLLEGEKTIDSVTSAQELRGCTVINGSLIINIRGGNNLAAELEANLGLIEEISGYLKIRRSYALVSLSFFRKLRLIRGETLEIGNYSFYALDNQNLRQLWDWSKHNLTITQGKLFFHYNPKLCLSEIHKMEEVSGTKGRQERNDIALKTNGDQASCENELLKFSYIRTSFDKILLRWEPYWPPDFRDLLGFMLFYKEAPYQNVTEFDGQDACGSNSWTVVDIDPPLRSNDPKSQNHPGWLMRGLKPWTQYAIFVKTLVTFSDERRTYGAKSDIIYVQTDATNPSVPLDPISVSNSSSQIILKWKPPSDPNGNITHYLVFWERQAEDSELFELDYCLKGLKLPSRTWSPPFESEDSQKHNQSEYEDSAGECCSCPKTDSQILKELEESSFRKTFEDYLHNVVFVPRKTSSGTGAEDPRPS
Chain of Insulin receptor (P06213 763-1382 limits assumed): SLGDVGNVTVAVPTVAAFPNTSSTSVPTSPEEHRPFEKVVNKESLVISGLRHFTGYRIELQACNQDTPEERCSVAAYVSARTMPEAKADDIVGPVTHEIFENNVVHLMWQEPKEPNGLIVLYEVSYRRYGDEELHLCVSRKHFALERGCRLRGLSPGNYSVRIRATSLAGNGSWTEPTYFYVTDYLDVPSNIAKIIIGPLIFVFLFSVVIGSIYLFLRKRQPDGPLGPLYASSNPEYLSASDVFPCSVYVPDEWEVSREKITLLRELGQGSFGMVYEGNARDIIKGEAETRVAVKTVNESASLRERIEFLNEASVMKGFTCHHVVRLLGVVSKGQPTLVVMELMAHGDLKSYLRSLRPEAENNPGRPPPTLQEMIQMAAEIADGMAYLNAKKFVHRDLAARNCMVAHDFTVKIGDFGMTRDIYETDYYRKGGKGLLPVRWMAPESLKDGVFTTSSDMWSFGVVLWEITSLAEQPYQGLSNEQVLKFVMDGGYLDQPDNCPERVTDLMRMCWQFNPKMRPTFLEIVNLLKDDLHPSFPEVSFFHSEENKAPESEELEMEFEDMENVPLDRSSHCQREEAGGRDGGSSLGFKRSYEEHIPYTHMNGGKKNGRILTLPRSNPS
Chain of Tyrosine-protein kinase Lyn (P07948 whole entry): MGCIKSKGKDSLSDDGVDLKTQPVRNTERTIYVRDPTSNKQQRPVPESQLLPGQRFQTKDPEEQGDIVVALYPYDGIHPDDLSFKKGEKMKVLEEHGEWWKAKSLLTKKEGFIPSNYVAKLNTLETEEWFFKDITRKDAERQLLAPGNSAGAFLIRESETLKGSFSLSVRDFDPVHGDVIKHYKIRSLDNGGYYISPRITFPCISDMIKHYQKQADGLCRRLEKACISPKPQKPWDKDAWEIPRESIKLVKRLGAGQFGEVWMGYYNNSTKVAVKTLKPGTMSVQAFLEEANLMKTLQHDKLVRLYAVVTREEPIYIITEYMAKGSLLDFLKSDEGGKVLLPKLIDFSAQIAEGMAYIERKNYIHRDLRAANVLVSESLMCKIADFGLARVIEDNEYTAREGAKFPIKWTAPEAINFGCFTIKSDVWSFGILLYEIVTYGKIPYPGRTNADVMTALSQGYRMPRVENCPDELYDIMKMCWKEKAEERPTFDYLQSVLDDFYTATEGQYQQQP

Consider `CN(C(=O)c1ccccc1)c1ccc2c(c1)nc(NC(=O)c1ccoc1)n2CCC(N)=O`, for which the IC50 was 0.32 µM on Insulin receptor and 0.01 µM in data set [1].
Regarding `Cc1cc(C(=O)Nc2nc3cc(N(C)C(=O)c4ccccc4)ccc3n2CCC(N)=O)ccc1C#N`, the concentration for half-maximal inhibition (IC50) against Insulin receptor is over 10 µM.
Take `CN(C(=O)c1ccccc1)c1ccc2c(c1)nc(NC(=O)c1ccc(C#N)nc1)n2CCC(N)=O`: the concentration for half-maximal inhibition (IC50) at Insulin receptor is over 10 µM.
In the case of `CN(C(=O)c1ccccc1)c1ccc2c(c1)nc(NC(=O)c1ccc(Cl)cc1)n2CCC(N)=O`, the Activity on Cytochrome P450 3A4 and on Cytochrome P450 2C9 was over 30 µM throughout. For the same compound, the IC50 was over 10 µM in [2], over 10 µM in data set [3] and 0.5 µM in [4]. Besides, the CC50 with Jurkat is 5.8 µM.
Consider `CCN(C(=O)c1ccccc1)c1ccc2c(c1)nc(NC(=O)c1ccno1)n2CCC(N)=O`, for which, in data set [1], the IC50 amounted to 0.027 µM.
Regarding `CCN(C(=O)c1ccccc1)c1ccc2c(c1)nc(NC(=O)c1ccc(C#N)cc1)n2CCC(N)=O`, the Activity on Cytochrome P450 3A4 and on Cytochrome P450 2C9 was over 30 µM throughout. Also, the IC50 was over 10 µM at Insulin receptor, over 10 µM in data set [2], over 10 µM in [3] and 0.31 µM in data set [4]. Moreover, the CC50 in the data set on Jurkat was over 10 µM.
In turn, `CN(C(=O)c1ccccc1)c1ccc2c(c1)nc(NC(=O)c1ccno1)n2CCC(N)=O` had an IC50 on Insulin receptor of over 10 µM.
On to `CN(C(=O)c1ccccc1)c1ccc2c(c1)nc(NC(=O)c1ccc(C#N)cc1)n2CCC(N)=O`, for which the Activity on Cytochrome P450 3A4 and at Cytochrome P450 2C9 was over 30 µM in each case. Besides, the concentration for half-maximal inhibition (IC50) against Insulin receptor is over 10 µM; in data set [2], over 10 µM; in [3] it was over 10 µM; in data set [4] it was 0.56 µM. In addition, the CC50 in the data set with Jurkat was over 10 µM.
For `CC(=O)N1CCN(C(=O)c2cc(CSc3cnc(NC(=O)c4ccc(CNC(C)C(C)(C)C)cc4)s3)cc(C)c2C)CC1` (configuration not stated), the Activity result with Mus musculus was “Dose-dependent effect”.

In general, IC50 refers to the concentration needed to halve the response being measured.

The values above are taken from ChEMBL document CHEMBL1142466, “Itk kinase inhibitors: initial efforts to improve the metabolical stability and the cell activity of the benzimidazole lead” (Bioorg Med Chem Lett, 2008).
